Measured values: US10857151B1, “Treatment of female genital schistosomiasis” (Villya LLC, priority 2020, dated 2020)

Key:
[1] = tested on: schistosomiasis worms in the vagina; test: Microscope observation of vaginal swab sample slides for schistosomiasis worms in FGS after treatment; type: in vivo, human; conditions: after two weeks
Text: A single dose of Praziquantel as described in Example 1 was vaginally inserted into the subject.

[2] = tested on: blood-borne infection of schistosomiasis; test: Blood test for schistosomiasis using Schisto POC-CCA in FGS after treatment; type: in vivo, human; conditions: female with FGS; three doses of 20 mg/kg oral praziquantel; after two weeks

**Q.** With `O=C(C1CCCCC1)N1CC(=O)N2CCc3ccccc3C2C1` (stereo not drawn) [praziquantel] as the molecule, how does the “observation of vaginal sample from brushing with a swab on microscope slides” value ([1]; female with FGS, three doses of 20 mg/kg oral praziquantel) read?
**A.** Its value is “live schistosomiasis worms still in the vagina”.

**Q.** What about the “slides observed under the microscope for schistosomiasis worms” value ([1]; single dose vaginally inserted as in Example 1 (600 mg praziquantel in 2.5 g K-Y Jelly), same subject after oral treatment) of the same molecule?
**A.** The value was “negative for schistosomiasis worms”.

**Q.** And the “blood retested for schistosomiasis” value [2]?
**A.** The value was “negative for schistosomiasis”.
